Results on 1 compound are retold here after publication PMC5218480 (PLoS ONE, 2017).

The experiment has as its system MV-4-11 cells. The experiment in a line: Gene expression microarray analysis (Affymetrix PrimeView) and GSEA. The settings on record: MV-4-11 cells, 48 hours. Set-up: RFU PODN (11730768_x_at) / Fold change /veh PODN (11730768_x_at) / RFU LINC00158 (11744669_a_at) / Fold change /veh LINC00158 (11744669_a_at) / RFU DUSP10 (11751237_a_at) / Fold change /veh DUSP10 (11751237_a_at) / RFU ID3 (11757404_x_at) / Fold change /veh ID3 (11757404_x_at) / RFU PLEKHG5 (11737974_s_at) / Fold change /veh PLEKHG5 (11737974_s_at) / RFU LRRC4B (11730491_at) / Fold change /veh LRRC4B (11730491_at) / RFU GIMAP4 (11747438_a_at) / Fold change /veh GIMAP4 (11747438_a_at) / RFU KRT8 (11758183_x_at) / Fold change /veh KRT8 (11758183_x_at) / RFU CNN1 (11734310_a_at) / Fold change /veh CNN1 (11734310_a_at) / RFU VPS37D (11726825_at) / Fold change /veh VPS37D (11726825_at) / RFU C10orf10 (11716522_x_at) / Fold change /veh C10orf10 (11716522_x_at) / RFU KIR2DL2 /// KIR2DL4 /// KIR2DL5A /// KIR2DL5B /// KIR2DS1 /// KIR2DS2 /// KIR2DS3 /// KIR2DS4 /// KIR3DL3 /// KIR3DL3 /// KIR3DS1 (11738374_at) / Fold change /veh KIR2DL2 /// KIR2DL4 /// KIR2DL5A /// KIR2DL5B /// KIR2DS1 /// KIR2DS2 /// KIR2DS3 /// KIR2DS4 /// KIR3DL3 /// KIR3DL3 /// KIR3DS1 (11738374_at) / RFU C1QL1 (11718748_at) / Fold change /veh C1QL1 (11718748_at) / RFU TMPRSS4 (11747572_a_at) / Fold change /veh TMPRSS4 (11747572_a_at) / RFU HAMP (11756126_x_at) / Fold change /veh HAMP (11756126_x_at) / RFU RNFT2 (11725882_a_at) / Fold change /veh RNFT2 (11725882_a_at) / RFU NR4A2 (11747474_a_at) / Fold change /veh NR4A2 (11747474_a_at) / RFU ABCC12 (11746883_a_at) / Fold change /veh ABCC12 (11746883_a_at) / RFU TMEM136 (11760407_x_at) / Fold change /veh TMEM136 (11760407_x_at) / RFU CLDN22 /// WWC2 (11732394_at) / Fold change /veh CLDN22 /// WWC2 (11732394_at) / RFU HLA-DPB1 (11760878_x_at) / Fold change /veh HLA-DPB1 (11760878_x_at) / RFU SPINT1 (11716480_a_at) / Fold change /veh SPINT1 (11716480_a_at) / RFU GAP43 (11754022_s_at) / Fold change /veh GAP43 (11754022_s_at) / RFU A4GNT (11735810_at) / Fold change /veh A4GNT (11735810_at) / RFU PRB3 (11715151_x_at) / Fold change /veh PRB3 (11715151_x_at) / RFU TUBB4B (11761932_at) / Fold change /veh TUBB4B (11761932_at) / RFU CAPN14 (11732068_a_at) / Fold change /veh CAPN14 (11732068_a_at) / RFU TMCC2 (11721928_a_at) / Fold change /veh TMCC2 (11721928_a_at) / RFU IRGQ (11745062_a_at) / Fold change /veh IRGQ (11745062_a_at) / RFU FAM174B (11720279_a_at) / Fold change /veh FAM174B (11720279_a_at) / RFU TMPRSS4 (11748680_a_at) / Fold change /veh TMPRSS4 (11748680_a_at) / RFU FAM212B (11763350_a_at) / Fold change /veh FAM212B (11763350_a_at) / RFU PLEKHG5 (11743358_a_at) / Fold change /veh PLEKHG5 (11743358_a_at) / RFU ZSCAN30 (11745921_a_at) / Fold change /veh ZSCAN30 (11745921_a_at) / RFU CMKLR1 (11741424_a_at) / Fold change /veh CMKLR1 (11741424_a_at) / RFU LOC101060620 /// MAPK8IP1 (11723275_at) / Fold change /veh LOC101060620 /// MAPK8IP1 (11723275_at) / RFU SPTSSB (11747773_x_at) / Fold change /veh SPTSSB (11747773_x_at) / RFU PRSS12 (11739890_at) / Fold change /veh PRSS12 (11739890_at) / RFU BIN1 (11741810_x_at) / Fold change /veh BIN1 (11741810_x_at) / RFU WNT11 (11732464_a_at) / Fold change /veh WNT11 (11732464_a_at) / RFU C10orf10 (11716521_a_at) / Fold change /veh C10orf10 (11716521_a_at) / RFU C5orf56 (11738089_at) / Fold change /veh C5orf56 (11738089_at) / RFU CYB561 (11721691_x_at) / Fold change /veh CYB561 (11721691_x_at) / RFU ANKRD19P (11752326_a_at) / Fold change /veh ANKRD19P (11752326_a_at) / RFU OR2T12 /// OR2T33 /// OR2T8 (11738714_s_at) / Fold change /veh OR2T12 /// OR2T33 /// OR2T8 (11738714_s_at) / RFU VCAN (11748164_a_at) / Fold change /veh VCAN (11748164_a_at) / RFU JSRP1 (11732532_at) / Fold change /veh JSRP1 (11732532_at) / RFU KRTAP10-11 (11738290_x_at) / Fold change /veh KRTAP10-11 (11738290_x_at) / RFU MYO3A (11730013_a_at) / Fold change /veh MYO3A (11730013_a_at) / RFU EBF3 (11725865_a_at) / Fold change /veh EBF3 (11725865_a_at) / RFU CAMK2N1 (11719241_x_at) / Fold change /veh CAMK2N1 (11719241_x_at) / RFU C5orf56 (11738088_a_at) / Fold change /veh C5orf56 (11738088_a_at) / RFU OLFML3 (11715873_a_at) / Fold change /veh OLFML3 (11715873_a_at) / RFU LOC100653217 /// NTM (11731650_a_at) / Fold change /veh LOC100653217 /// NTM (11731650_a_at) / RFU MAPK11 (11762145_a_at) / Fold change /veh MAPK11 (11762145_a_at) / RFU FIZ1 (11724087_x_at) / Fold change /veh FIZ1 (11724087_x_at) / RFU OASL (11726364_x_at) / Fold change /veh OASL (11726364_x_at) / RFU SOX15 (11748057_x_at) / Fold change /veh SOX15 (11748057_x_at) / RFU CD79A (11719716_a_at) / Fold change /veh CD79A (11719716_a_at) / RFU HIST1H1D (11736915_at) / Fold change /veh HIST1H1D (11736915_at) / RFU CASKIN2 (11723855_a_at) / Fold change /veh CASKIN2 (11723855_a_at) / RFU LOC730098 (11760151_x_at) / Fold change /veh LOC730098 (11760151_x_at) / RFU OR4N2 (11742367_at) / Fold change /veh OR4N2 (11742367_at) / RFU PRRT2 (11749266_a_at) / Fold change /veh PRRT2 (11749266_a_at) / RFU SNX32 (11753110_a_at) / Fold change /veh SNX32 (11753110_a_at) / RFU CDHR5 (11726645_a_at) / Fold change /veh CDHR5 (11726645_a_at) / RFU RCAN1 (11760418_a_at) / Fold change /veh RCAN1 (11760418_a_at) / RFU FAM167A (11723789_a_at) / Fold change /veh FAM167A (11723789_a_at) / RFU FAM26E (11764081_at) / Fold change /veh FAM26E (11764081_at) / RFU ISYNA1 (11749810_s_at) / Fold change /veh ISYNA1 (11749810_s_at) / RFU ACY1 (11761880_at) / Fold change /veh ACY1 (11761880_at) / RFU 11764098_at / Fold change /veh 11764098_at / RFU SAMD14 (11745864_x_at) / Fold change /veh SAMD14 (11745864_x_at) / RFU NPB (11741838_a_at) / Fold change /veh NPB (11741838_a_at) / RFU TMPRSS6 (11731388_a_at) / Fold change /veh TMPRSS6 (11731388_a_at) / RFU KRTAP10-2 (11738614_at) / Fold change /veh KRTAP10-2 (11738614_at) / RFU ARHGAP8 /// PRR5-ARHGAP8 (11727945_x_at) / Fold change /veh ARHGAP8 /// PRR5-ARHGAP8 (11727945_x_at) / RFU KRTAP5-7 /// NADSYN1 (11734609_at) / Fold change /veh KRTAP5-7 /// NADSYN1 (11734609_at) / RFU RASL12 (11751679_a_at) / Fold change /veh RASL12 (11751679_a_at) / RFU CDKN2B (11736163_a_at) / Fold change /veh CDKN2B (11736163_a_at) / RFU PRF1 (11729649_at) / Fold change /veh PRF1 (11729649_at) / RFU, ZNF638 /// ZNF638-IT1 / Fold change vs veh, ZNF638 /// ZNF638-IT1 / RFU, PANK3 / Fold change vs veh, PANK3 / RFU, SH3YL1 / Fold change vs veh, SH3YL1 / RFU, ZEB2 / Fold change vs veh, ZEB2 / RFU, NRIP1 / Fold change vs veh, NRIP1 / RFU, PTTG1IP / Fold change vs veh, PTTG1IP / RFU, CAPN2 / Fold change vs veh, CAPN2 / RFU, MED14 / Fold change vs veh, MED14 / RFU, SNORA58 / Fold change vs veh, SNORA58 / RFU, C1orf63 / Fold change vs veh, C1orf63 / RFU, LRRFIP1 / Fold change vs veh, LRRFIP1 / RFU, NDUFAF7 / Fold change vs veh, NDUFAF7 / RFU, SLC12A2 / Fold change vs veh, SLC12A2 / RFU, IBTK / Fold change vs veh, IBTK / RFU, ESF1 / Fold change vs veh, ESF1 / Fold change vs veh, TMEM50B / RFU, TAOK1 / Fold change vs veh, TAOK1 / RFU, ACBD3 / Fold change vs veh, ACBD3 / RFU, TMA16 / Fold change vs veh, TMA16 / RFU, RWDD3 / Fold change vs veh, RWDD3 / RFU, BCAT1 / Fold change vs veh, BCAT1 / RFU, EDEM3 / Fold change vs veh, EDEM3 / RFU, TMEM33 / Fold change vs veh, TMEM33 / RFU, WDR75 / Fold change vs veh, WDR75 / RFU, AHCTF1 / Fold change vs veh, AHCTF1 / RFU, TFRC / Fold change vs veh, TFRC / RFU, ZDHHC17 / Fold change vs veh, ZDHHC17 / RFU, NOM1 / Fold change vs veh, NOM1 / RFU, ARL8B / Fold change vs veh, ARL8B / RFU, ZBTB11 / Fold change vs veh, ZBTB11 / RFU, TAMM41 / Fold change vs veh, TAMM41 / RFU, KIAA1704 /// LOC100996395 / Fold change vs veh, KIAA1704 /// LOC100996395 / RFU, ING1 / Fold change vs veh, ING1 / RFU, TRMT61B / Fold change vs veh, TRMT61B / RFU, FUBP3 / Fold change vs veh, FUBP3 / RFU, TP53 / Fold change vs veh, TP53 / RFU, TNKS2 / Fold change vs veh, TNKS2 / RFU, ZFP14 / Fold change vs veh, ZFP14 / RFU, ACTR2 / Fold change vs veh, ACTR2 / RFU, PPP3R1 / Fold change vs veh, PPP3R1 / RFU, PIK3R1 / Fold change vs veh, PIK3R1 / RFU, HNRNPA1 / Fold change vs veh, HNRNPA1 / RFU, RNF170 / Fold change vs veh, RNF170 / RFU, ZNF28 / Fold change vs veh, ZNF28 / RFU, RNGTT / Fold change vs veh, RNGTT / RFU, OGT / Fold change vs veh, OGT / RFU, BRD1 / Fold change vs veh, BRD1 / RFU, MARS / Fold change vs veh, MARS / RFU, ZNF655 / Fold change vs veh, ZNF655 / RFU, FAHD1 / Fold change vs veh, FAHD1 / RFU, BDP1 / Fold change vs veh, BDP1 / RFU, LRRCC1 / Fold change vs veh, LRRCC1 / RFU, ARID1A / Fold change vs veh, ARID1A / RFU, ZNF146 / Fold change vs veh, ZNF146 / RFU, ZNF330 / Fold change vs veh, ZNF330 / RFU, GPN3 / Fold change vs veh, GPN3 / RFU, C9orf123 / Fold change vs veh, C9orf123 / RFU, N4BP2L2 / Fold change vs veh, N4BP2L2 / RFU, ARFIP1 / Fold change vs veh, ARFIP1 / RFU, FAM179B / Fold change vs veh, FAM179B / RFU, BCL10 / Fold change vs veh, BCL10 / RFU, UHRF1BP1L / Fold change vs veh, UHRF1BP1L / RFU, BET1 / Fold change vs veh, BET1 / RFU, CNOT2 / Fold change vs veh, CNOT2 / RFU, ZNF268 / Fold change vs veh, ZNF268 / Fold change vs veh, ZNF507 / RFU, DGCR2 / Fold change vs veh, DGCR2 / RFU, WDSUB1 / Fold change vs veh, WDSUB1 / Fold change vs veh, HSP90B1 /// MIR3652 / RFU, ADSS / Fold change vs veh, ADSS / RFU, GK / Fold change vs veh, GK / RFU, ZNF148 / Fold change vs veh, ZNF148 / RFU, TAF9 / Fold change vs veh, TAF9 / RFU, SLC1A5 / Fold change vs veh, SLC1A5 / RFU, SLMO2 / Fold change vs veh, SLMO2 / RFU, ABCC4 / Fold change vs veh, ABCC4 / RFU, LOC101060439 /// RAP1B / Fold change vs veh, LOC101060439 /// RAP1B / RFU, RFX7 / Fold change vs veh, RFX7 / RFU, GTPBP10 / Fold change vs veh, GTPBP10 / RFU, CNEP1R1 / Fold change vs veh, CNEP1R1 / RFU, BIVM-ERCC5 /// ERCC5 / Fold change vs veh, BIVM-ERCC5 /// ERCC5 / RFU, ILF3 / Fold change vs veh, ILF3 / RFU 11762660_at / Fold change /veh 11762660_at / RFU VCAN (11757783_s_at) / Fold change /veh VCAN (11757783_s_at) / RFU DDX43 (11728927_at) / Fold change /veh DDX43 (11728927_at) / RFU KRT8 (11758188_x_at) / Fold change /veh KRT8 (11758188_x_at) / RFU NKD1 (11759106_at) / Fold change /veh NKD1 (11759106_at) / RFU SRD5A1 (11742802_a_at) / Fold change /veh SRD5A1 (11742802_a_at) / RFU TPSAB1 /// TPSB2 (11721975_s_at) / Fold change /veh TPSAB1 /// TPSB2 (11721975_s_at) / RFU GSTM3 (11746129_a_at) / Fold change /veh GSTM3 (11746129_a_at) / RFU IL23R (11737362_x_at) / Fold change /veh IL23R (11737362_x_at) / RFU TMEM51 (11727254_a_at) / Fold change /veh TMEM51 (11727254_a_at) / RFU PIWIL2 (11732686_x_at) / Fold change /veh PIWIL2 (11732686_x_at) / RFU ORM1 (11744905_x_at) / Fold change /veh ORM1 (11744905_x_at) / RFU CCDC152 (11743942_at) / Fold change /veh CCDC152 (11743942_at) / RFU ECM1 (11717891_a_at) / Fold change /veh ECM1 (11717891_a_at) / RFU IL23R (11748794_a_at) / Fold change /veh IL23R (11748794_a_at) / RFU TNFAIP8L3 (11732012_x_at) / Fold change /veh TNFAIP8L3 (11732012_x_at) / RFU MBOAT4 (11741988_at) / Fold change /veh MBOAT4 (11741988_at) / RFU 11764193_at / Fold change /veh 11764193_at / RFU TMEM53 (11763286_at) / Fold change /veh TMEM53 (11763286_at) / RFU MAGEB2 (11727129_at) / Fold change /veh MAGEB2 (11727129_at) / RFU TMEM200A (11744735_a_at) / Fold change /veh TMEM200A (11744735_a_at) / RFU CCDC152 (11751479_a_at) / Fold change /veh CCDC152 (11751479_a_at) / RFU FAM211A (11726209_a_at) / Fold change /veh FAM211A (11726209_a_at) / RFU RGS16 (11746705_a_at) / Fold change /veh RGS16 (11746705_a_at) / RFU VCAN (11755009_s_at) / Fold change /veh VCAN (11755009_s_at) / RFU RHOB (11743442_s_at) / Fold change /veh RHOB (11743442_s_at) / RFU RGS16 (11720943_a_at) / Fold change /veh RGS16 (11720943_a_at) / RFU RGS16 (11720944_at) / Fold change /veh RGS16 (11720944_at) / RFU, VPS4B / Fold change vs veh, VPS4B / RFU, CREB1 / Fold change vs veh, CREB1 / RFU, DNAJC13 / Fold change vs veh, DNAJC13 / RFU, GNAQ / Fold change vs veh, GNAQ / RFU, CDK5R1 / Fold change vs veh, CDK5R1 / RFU, ZRANB3 / Fold change vs veh, ZRANB3 / RFU, CUL4A / Fold change vs veh, CUL4A / RFU, CCNY / Fold change vs veh, CCNY / RFU, UFL1 / Fold change vs veh, UFL1 / RFU, COG3 / Fold change vs veh, COG3 / RFU, DIAPH2 / Fold change vs veh, DIAPH2 / RFU, SKA2 / Fold change vs veh, SKA2 / RFU, AFF3 / Fold change vs veh, AFF3 / RFU, LMF1 / Fold change vs veh, LMF1 / RFU, IPO11 / Fold change vs veh, IPO11 / RFU, DFFB / Fold change vs veh, DFFB / RFU, FOXP1 / Fold change vs veh, FOXP1 / RFU, CARD8 / Fold change vs veh, CARD8 / RFU, STRN3 / Fold change vs veh, STRN3 / RFU, ADK / Fold change vs veh, ADK / RFU, RASSF2 / Fold change vs veh, RASSF2 / RFU, WIPF1 / Fold change vs veh, WIPF1 / RFU, LARP1B / Fold change vs veh, LARP1B / RFU, RASA1 / Fold change vs veh, RASA1 / RFU, RB1 / Fold change vs veh, RB1 / RFU, PPFIA1 / Fold change vs veh, PPFIA1 / RFU, MAT2A / Fold change vs veh, MAT2A / RFU, CCT5 / Fold change vs veh, CCT5 / RFU, WDR92 / Fold change vs veh, WDR92 / RFU, CUX1 / Fold change vs veh, CUX1 / RFU, TTC7A / Fold change vs veh, TTC7A / RFU, TMEM135 / Fold change vs veh, TMEM135 / RFU, DEPTOR / Fold change vs veh, DEPTOR / RFU, CPM / Fold change vs veh, CPM / RFU, DNAJB6 / Fold change vs veh, DNAJB6 / RFU, CACNA2D3 / Fold change vs veh, CACNA2D3 / RFU, DTX4 / Fold change vs veh, DTX4 / RFU, TFCP2 / Fold change vs veh, TFCP2 / RFU, GMCL1 /// GMCL1P1 / Fold change vs veh, GMCL1 /// GMCL1P1 / RFU, AEBP2 / Fold change vs veh, AEBP2 / RFU, SNHG1 /// SNORD22 /// SNORD25 /// SNORD26 /// SNORD27 /// SNORD28 /// SNORD29 /// SNORD31 / Fold change vs veh, SNHG1 /// SNORD22 /// SNORD25 /// SNORD26 /// SNORD27 /// SNORD28 /// SNORD29 /// SNORD31 / Fold change (Aza/veh), C12orf56 (ProbeSet 11735607_a_at) / Fold change (ACY-1035/veh), C12orf56 (ProbeSet 11735607_a_at) / Fold change (Aza/veh), FGFR1OP (ProbeSet 11751329_s_at) / Fold change (ACY-1035/veh), FGFR1OP (ProbeSet 11751329_s_at) / Fold change (Aza/veh), VPS36 (ProbeSet 11739960_a_at) / Fold change (ACY-1035/veh), VPS36 (ProbeSet 11739960_a_at) / RFU SYPL1 (11715823_x_at) / Fold change /veh SYPL1 (11715823_x_at) / RFU IGFBP7 (11715501_s_at) / Fold change /veh IGFBP7 (11715501_s_at) / RFU REEP3 (11722064_at) / Fold change /veh REEP3 (11722064_at) / RFU IGLL1 (11728026_x_at) / Fold change /veh IGLL1 (11728026_x_at): dose or concentration left out as unconfirmed. The format is cell-based, human.

Each structure is given as a SMILES string.

Take `Nc1ccc(-c2cccs2)cc1NC(=O)c1ccc2c(c1)cc(C1CC1)n2CCN1CCOCC1` [ACY-1035]: the “Fold change /veh KRT8 (11758188_x_at)” value is reported as 1.06.
